Read-outs that look alike come from different tables or passages of the source.
What was measured:
[1] = system: L1210 DDPt (cis-plat) cells; assay: sensitivity of mdr lines, L1210 DDPt; format: cell-based; conditions: Mus musculus
[2] = system: human lung adenocarcinoma MV522; conditions: in vivo
[3] = system: 242, melanoma; assay: inhibition of thymidine incorporation after two hour exposure, 242; format: cell-based; conditions: 2 h; Table 1; 242, two hour exposure
Method: (§1) To assess cytotoxic effects, various concentrations of illudins were added to cultures of cells for 48 hours, then cell growth/viability was determined by trypan blue exclusion. As an alternative to 48 hour continuous exposure studies, cells were plated in liquid culture in 96 well plates, exposed to various concentrations of illudins for 2 hours, pulsed with [^3 H]-thymidine for one to two hours and harvested onto glass filters. The filter papers were added to vials containing scintillation fluid and residual radioactivity determined in a beta (scintillation) counter.
(§2) two hour exposure to the toxins (N - 3).

[4] = system: L1210 BCNU cells; assay: sensitivity of mdr lines, L1210 BCNU; format: cell-based; conditions: Mus musculus
[5] = system: Go; assay: zone of inhibition, Go
[6] = system: Molt-4 (human T-cell leukemia) xenograft; assay: Molt-4 xenograft in athymic Balb/c nu/nu mice; format: in vivo; conditions: Molt-4, athymic mice; FIG. 4
[7] = system: HL-60 ADR (gp150+) cells; assay: sensitivity of mdr lines, HL-60 ADR; format: cell-based; conditions: Homo sapiens, HL60/ADR
[8] = system: MDA-231 parent (Breast) cells; assay: sensitivity of mdr lines, MDA-231 parent; format: cell-based; conditions: Homo sapiens, MDA-MB-231
[9] = system: 8392 cells (B-cell); assay: cells; format: cell-based; conditions: 2 h
[10] = system: 547, ovarian; assay: inhibition of thymidine incorporation after two hour exposure, 547; format: cell-based; conditions: 2 h; Table 1; 547, two hour exposure
Method: as §1, §2

[11] = system: MCF7-wt parent (Breast) cells; assay: sensitivity of mdr lines, MCF7-wt parent; format: cell-based; conditions: Homo sapiens
[12] = system: 8402, T-cell; assay: inhibition of thymidine incorporation after two hour exposure, 8402; format: cell-based; conditions: 2 h, Table 1, 8402, two hour exposure
Method: as §1, §2

[13] = system: MV522; assay: cells; format: cell-based; conditions: Homo sapiens, MV522, 48 h, read-out: 48 hour IC50
[14] = system: KB VBL (gp170+) cells; assay: sensitivity of mdr lines, KB VBL; format: cell-based
[15] = system: C1498 cells; assay: C1498 syngeneic mouse AML model, increased life span; format: in vivo
Method: In collaboration, the in vivo effects of dehydroilludin M was again studied. Initially the compound was studied against L1210 cells. […] The dehydroilludin M was then administered as a 24 hour infusion (5.0 mg/kg); the ILS was 11%. After we became aware of the presence of the energy-dependent uptake in human myelocytic cells, dehydroilludin M was screened for in vivo […], produced an ILS of 35%.

[16] = system: MV522 cells; assay: cells; format: cell-based, human; conditions: Homo sapiens, MV522, 2 h, read-out: Two hour IC50
[17] = system: 8392 cells; assay: cells; format: cell-based; conditions: 48 h, read-out: 48 hour IC50
[18] = system: HL-60 parent cells; assay: sensitivity of mdr lines, HL-60 parent; format: cell-based; conditions: Homo sapiens
[19] = system: CEM Dox (gp170+) variant cells; assay: sensitivity of mdr lines, CEM Dox; format: cell-based
[20] = system: MCF-7, breast; assay: cells; format: cell-based, human
[21] = system: L1210 CPA (cyclophos) cells; assay: sensitivity of mdr lines, L1210 CPA; format: cell-based; conditions: Mus musculus
[22] = system: L1210; assay: zone of inhibition / colony formation, L1210
[23] = system: CEM AraC variant cells; assay: sensitivity of mdr lines, CEM AraC; format: cell-based
[24] = system: MCF7 ADR (GSH-transferase) cells; assay: cells; format: cell-based; conditions: Homo sapiens
[25] = system: KB parent cells; assay: sensitivity of mdr lines, KB parent; format: cell-based
[26] = system: HL-60 cells; assay: cells; format: cell-based, human; conditions: Homo sapiens, HL-60
[27] = system: human lung adenocarcinoma MV522; assay: animal or person; conditions: MV522, ip, read-out: life span
[28] = system: HL60 cells (myeloid); assay: cells; format: cell-based, human; conditions: Homo sapiens, HL-60, 2 h
[29] = system: CEM parent cells; assay: sensitivity of mdr lines, CEM parent; format: cell-based
[30] = system: L1210 PAM (melphalan) cells; assay: sensitivity of mdr lines, L1210 PAM; format: cell-based; conditions: Mus musculus
[31] = system: HL60 cells; assay: cells; format: cell-based; conditions: Homo sapiens, HL-60, 48 h, read-out: 48 hour IC50
[32] = system: CFU-GM; assay: colony formation zone size, CFU-GM; conditions: CFU-GM
[33] = system: SL-2, murine (thymic); assay: inhibition of thymidine incorporation after two hour exposure, SL-2; format: cell-based; conditions: Mus musculus, 2 h; Table 1; SL-2, two hour exposure
Method: as §1, §2

[34] = system: CEM VLB100 (gp170+) variant cells; assay: sensitivity of mdr lines, CEM VLB100; format: cell-based
[35] = system: L1210 parent cells; assay: sensitivity of mdr lines, L1210 parent; format: cell-based; conditions: Mus musculus
[36] = system: CEM VM-1 variant cells; assay: sensitivity of mdr lines, CEM VM-1; format: cell-based; conditions: Homo sapiens, CEM-VM1
[37] = system: MDA-231, breast; assay: cells; format: cell-based
[38] = system: MDA-231 3-1 (gp170+) cells; assay: sensitivity of mdr lines, MDA-231 3-1; format: cell-based; conditions: Homo sapiens, MDA-MB-231
[39] = system: Colon 38; assay: zone of inhibition, Colon 38
[40] = system: KB C-1 (gp170+) cells; assay: sensitivity of mdr lines, KB C-1; format: cell-based; conditions: KBC-1

Question: How did the IC50 [1] turn out when CC1=C2C(=C[C@@](C)(CO)C2O)C(=O)[C@](C)(O)C12CC2 (stereo partly shown) [Illudin S] was run?
Answer: 0.46 ± 0.12 nM

Question: And the “life span versus control” value [2]?
Answer: no significant increase in the life span

Question: What about the IC50 [3] of the same molecule?
Answer: 607 ± 70 nM

Question: And the IC50 [4]?
Answer: 0.58 ± 0.08 nM

Question: And the “Zone of Inhibition” value ([5]; 0.63 ug/disc)?
Answer: 3

Question: And the “Zone of Inhibition” value ([5]; 1.25 ug/disc)?
Answer: 70

Question: And the “Zone of Inhibition” value ([5]; 2.50 ug/disc)?
Answer: 240

Question: And the tumor growth [6]?
Answer: tumor growth delay

Question: And the IC50 [7]?
Answer: 1.9 ± 0.8 nM

Question: What about the IC50 [8] of the same molecule?
Answer: 0.85 ± 0.23 nM

Question: And the IC50 [9]?
Answer: 236 ± 31 nM

Question: And the IC50 ([9]; read-out: Two hour IC50)?
Answer: 236 ± 2 nM

Question: And the IC50 [10]?
Answer: 607 ± 110 nM

Question: And the IC50 ([11]; MCF7-wt Parent, read-out: Sensitivity of mdr lines)?
Answer: 0.88 ± 0.11 nM

Question: What about the IC50 ([11]; MCF7-wt, read-out: parent IC50) of the same molecule?
Answer: 0.88 nM

Question: And the IC50 [12]?
Answer: 669 ± 196 nM

Question: What about the IC50 [13] of the same molecule?
Answer: 4 ± 1 nM

Question: What about the IC50 [14] of the same molecule?
Answer: 0.69 ± 0.11 nM

Question: And the ILS ([15]; 2.5 mg/kg IP once a day for 5 days)?
Answer: 44%

Question: What about the ILS ([15]; single bolus, 2.5 mg/kg IP) of the same molecule?
Answer: 35%

Question: What about the IC50 [16] of the same molecule?
Answer: 19 ± 6 nM

Question: And the IC50 [17]?
Answer: 8 ± 2 nM

Question: And the IC50 [18]?
Answer: 3.1 ± 1.1 nM

Question: And the IC50 [19]?
Answer: 14 nM

Question: What about the “sensitivity to illudin S” value [20] of the same molecule?
Answer: markedly sensitive

Question: What about the IC50 ([20]; Homo sapiens, MCF7, 2 h) of the same molecule?
Answer: 58 ± 5 nM

Question: And the IC50 [21]?
Answer: 0.46 ± 0.12 nM

Question: And the “Zone of Inhibition” value ([22]; L1210, 0.63 ug/disc)?
Answer: 320

Question: What about the “Zone of Inhibition” value ([22]; L1210, 1.25 ug/disc) of the same molecule?
Answer: 400

Question: And the “Zone of Inhibition” value ([22]; L1210, 2.50 ug/disc)?
Answer: 500

Question: And the “Zone Size” value ([22]; L1210, dilution 1/1,000)?
Answer: 850

Question: And the “Zone Size” value ([22]; L1210, dilution 1/4,000)?
Answer: 600

Question: And the “Zone Size” value ([22]; L1210, dilution 1/16,000)?
Answer: 550

Question: What about the “Zone Size” value ([22]; L1210, dilution 1/64,000) of the same molecule?
Answer: 300

Question: And the IC50 [23]?
Answer: 14 nM

Question: And the IC50 ([24]; NCI/ADR-RES, read-out: Sensitivity of mdr lines)?
Answer: 3.7 ± 0.4 nM

Question: What about the IC50 ([24]; read-out: daughter line IC50) of the same molecule?
Answer: 3.7 nM

Question: What about the IC50 [25] of the same molecule?
Answer: 0.58 ± 0.12 nM

Question: And the IC50 [26]?
Answer: 10 nM

Question: And the response vs control in vivo at 0.25 mg/kg [27]?
Answer: 104 ± 20%

Question: And the response vs control in vivo at 2.5 mg/kg [27]?
Answer: < 26%

Question: And the IC50 [28]?
Answer: 7 ± 1 nM

Question: What about the IC50 ([28]; read-out: Two hour IC50) of the same molecule?
Answer: 10 ± 1 nM

Question: And the IC50 [29]?
Answer: 8.3 ± 2.6 nM

Question: And the IC50 [30]?
Answer: 0.62 ± 0.15 nM

Question: And the IC50 [31]?
Answer: 10 ± 1 nM

Question: And the “Zone Size” value ([32]; dilution 1/1,000)?
Answer: 400

Question: And the “Zone Size” value ([32]; dilution 1/4,000)?
Answer: 200

Question: And the “Zone Size” value ([32]; dilution 1/16,000)?
Answer: 0

Question: What about the “Zone Size” value ([32]; dilution 1/64,000) of the same molecule?
Answer: 0

Question: What about the IC50 [33] of the same molecule?
Answer: 142 ± 15 nM

Question: And the IC50 [34]?
Answer: 3.7 ± 0.7 nM

Question: And the IC50 [35]?
Answer: 0.42 ± 0.08 nM

Question: And the IC50 [36]?
Answer: 16.2 ± 6.4 nM

Question: And the “sensitivity to illudin S” value [37]?
Answer: markedly sensitive

Question: And the IC50 ([37]; Homo sapiens, MDA-MB-231, 2 h)?
Answer: 2 ± 0.2 nM

Question: What about the IC50 [38] of the same molecule?
Answer: 0.89 ± 0.38 nM

Question: And the “Zone of Inhibition” value ([39]; Colon 38, 0.63 ug/disc)?
Answer: 0

Question: What about the “Zone of Inhibition” value ([39]; Colon 38, 1.25 ug/disc) of the same molecule?
Answer: 0

Question: And the “Zone of Inhibition” value ([39]; Colon 38, 2.50 ug/disc)?
Answer: 30

Question: What about the IC50 [40] of the same molecule?
Answer: 0.69 ± 0.15 nM

From US5563176A (priority 1994, dated 1996)
